Columns and labels:
[1] = biological target: glucose dehydrogenase/NAD system (Bacillus subtilis, UniProt P12310); experiment: Photometric glucose determination with test elements containing GlucDH, NAD, mediator and 2,18-phosphomolybdic acid; details: glucose in the region of 800 mg/dl; test elements stored 11 weeks at room temperature
Method: Various test systems which each contained glucose dehydrogenase, NAD, a mediator and, where appropriate, an optical indicator, were measured photometrically and electrochemically in order to determine glucose.
For photometric measurements four test elements which had each been stored for 11 weeks at room temperature and contained 2,18-phosphomolybdic acid in addition to glucose dehydrogenase, NAD and a mediator, were initially investigated at various glucose concentrations.
The kinetics of the conversion of glucose using the system glucose dehydrogenase, NAD, 1-(3-carboxypropoxy)-5-ethylphenazinium-trifluoromethane sulfonate and 2,18-phosphomolybdic acid at glucose concentrations in the range from 0 to 800 mg/dl is shown in FIG. 14.

[2] = biological target: T1, alcohol dehydrogenase (ADH) (Saccharomyces cerevisiae, UniProt P00330); experiment: Stability of alcohol dehydrogenase with coenzyme in a liquid phase at 35° C.; type: biochemical, yeast; details: 65 hours at 35° C., 5 mg/ml ADH, 50 mg/ml coenzyme, pH 9.0
T1 sequence (P00330 1-348): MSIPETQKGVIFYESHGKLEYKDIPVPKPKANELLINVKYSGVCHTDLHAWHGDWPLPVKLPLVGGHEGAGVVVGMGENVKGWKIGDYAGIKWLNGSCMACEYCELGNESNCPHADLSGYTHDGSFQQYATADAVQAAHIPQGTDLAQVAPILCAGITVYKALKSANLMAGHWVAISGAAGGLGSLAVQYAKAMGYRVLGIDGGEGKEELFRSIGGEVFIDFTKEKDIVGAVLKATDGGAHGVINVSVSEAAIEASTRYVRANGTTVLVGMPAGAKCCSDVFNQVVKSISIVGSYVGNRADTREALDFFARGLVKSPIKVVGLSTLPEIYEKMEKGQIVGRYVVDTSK
Method: FIG. 12 is a graphical illustration of the stability of alcohol dehydrogenase from yeast in the presence of NAD or cNAD in a liquid phase at 35° C. for a period of 65 hours with test conditions of 5 mg/ml ADH; 50 mg/ml NAD or cNAD; buffer: 75 mM Na4P2O7; glycine, pH 9.0; temperature 35° C.
(§1) cNAD or NAD was added to a detection solution containing alcohol dehydrogenase. These mixtures were stored at 2-8° C. and at 35° C. Subsequently, the stability of alcohol dehydrogenase (ADH) was checked at regular intervals and the residual activity of the enzyme was determined.
The residual activity of alcohol dehydrogenase in the presence of the native coenzyme NAD is at about 6% after 65 hours at 35° C., whereas the residual activity of the enzyme in the presence of the artificial coenzyme cNAD is still at about 60%.

[3] = biological target: T1, alcohol dehydrogenase (ADH); experiment: Storage of alcohol dehydrogenase detection solution with NAD or cNAD (Tables 1 and 2); type: biochemical, yeast; details: 16 mmol/l coenzyme
Method: as §1
If alcohol dehydrogenase is stored together with native NAD or with cNAD for several months at 2-8° C. in a refrigerator, then one observes in the case of […] a considerable decrease in enzyme activity over the entire storage period. Whereas the difference after 2 weeks storage is still slight, there is an approximately 20% higher residual activity of alcohol dehydrogenase after 12 months storage in the presence of 16 mM cNAD compared to a corresponding solution containing 16 mM NAD as the coenzyme.
Accordingly, the residual activity of alcohol dehydrogenase can be increased somewhat in samples that have been stored for 2 weeks at 2-8° C. by increasing the concentration of cNAD.

[4] = biological target: Glucose dehydrogenase mutant2 (Bacillus subtilis, UniProt P12310, A229V/A236S/E170K/Q252L); experiment: Differential scanning calorimetry (DSC) of coenzyme binding; details: Tris buffer, pH 8.0; versus absence of NAD (79.1° C.)
Sequence of Glucose dehydrogenase mutant2 (P12310 whole entry E170K/A229V/A236S/Q252L): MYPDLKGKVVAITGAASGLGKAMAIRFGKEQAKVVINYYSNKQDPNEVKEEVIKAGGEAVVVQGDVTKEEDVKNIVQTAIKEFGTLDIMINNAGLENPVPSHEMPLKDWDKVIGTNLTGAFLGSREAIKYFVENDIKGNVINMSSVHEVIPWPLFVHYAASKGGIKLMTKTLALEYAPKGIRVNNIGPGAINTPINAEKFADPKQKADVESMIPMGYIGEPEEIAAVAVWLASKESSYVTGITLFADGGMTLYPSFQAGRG

[5] = biological target: glucose dehydrogenase (GlucDH) (Bacillus subtilis, UniProt P12310); experiment: Stability of glucose dehydrogenase with coenzyme in a liquid phase at 50° C.; type: biochemical; details: 10 mg/ml GlucDH, 12 mg/ml coenzyme, pH 8.5
Sequence of glucose dehydrogenase (GlucDH) (P12310 whole entry): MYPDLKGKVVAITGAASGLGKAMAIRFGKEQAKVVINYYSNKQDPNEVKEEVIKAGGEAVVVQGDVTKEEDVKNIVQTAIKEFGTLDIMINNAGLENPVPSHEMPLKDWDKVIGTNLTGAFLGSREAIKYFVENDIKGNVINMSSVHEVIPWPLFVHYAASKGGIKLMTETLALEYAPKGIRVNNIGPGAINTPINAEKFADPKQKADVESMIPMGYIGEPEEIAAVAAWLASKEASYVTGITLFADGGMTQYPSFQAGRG
Method: FIGS. 9A and 9B are graphical illustrations of the stability of glucose dehydrogenase in the presence of NAD or cNAD in a liquid phase at 50° C. for a period of 4 days (FIG. 9A) or 14 days (FIG. 9B) with test conditions of 10 mg/ml GlucDH; 12 mg/ml NAD or cNAD; buffer: 0.1 M Tris, 1.2 M NaCl, pH 8.5; temperature 50° C.
After 95 hours at 50° C. the residual activity of glucose dehydrogenase in the presence of the native coenzyme NAD is […], whereas the residual activity of GlucDH in the presence of the artificial coenzyme cNAD is 75% (FIG. 9A). After 336 hours storage at 50° C. the residual activity of the enzyme stabilized with NAD is now only about 1%; a residual activity of still about 70% is observed for the enzyme stored in the presence of cNAD. The corresponding SDS gels also show a change in the GlucDH bands in the presence of the native coenzyme NAD: new bands are seen at higher molar masses and there is a shift in the 30 kDa band.

Sequence of glucose dehydrogenase/NAD system (P12310 whole entry): as above

SMILES: CC[n+]1c2ccccc2nc2c(OCCCC(=O)O)cccc21.O=S(=O)([O-])C(F)(F)F [1-(3-carboxy-propoxy)-5-ethylphenazinium-trifluoromethane sulfonate]
- reflectance of the measured sample [1]: about 20%

SMILES: NC(=O)c1ccc[n+]([C@@H]2O[C@H](COP(=O)([O-])OP(=O)(O)OC[C@H]3O[C@@H](n4cnc5c(N)ncnc54)[C@H](O)[C@@H]3O)[C@@H](O)[C@H]2O)c1 [NAD, nicotinamide adenine dinucleotide, reference compound]
- residual activity of alcohol dehydrogenase [2]: about 6%
- ADH activity after 2 weeks at 2-8° C. ([3]; 2 weeks at 2-8° C.): 96.9 % of initial value
- ADH activity after 3 months at 2-8° C. ([3]; 3 months at 2-8° C.): 92.1 % of initial value
- ADH activity after 7.5 months at 2-8° C. ([3]; 7.5 months at 2-8° C.): 80.2 % of initial value
- ADH activity after 10 months at 2-8° C. ([3]; 10 months at 2-8° C.): 70.3 % of initial value
- ADH activity after 12 months at 2-8° C. ([3]; 12 months at 2-8° C.): 60.5 % of initial value
- ADH activity % of weighed amount (initial value) ([3]; initial value): 85.2 % of weighed amount
- TM shift on binding of ligand [4]: more than 1.5 °C
- residual activity of glucose dehydrogenase ([5]; 95 hours at 50° C.): > 5%
- residual activity of glucose dehydrogenase ([5]; 336 hours at 50° C.): about 1%

SMILES: Cl.O=Nc1ccc(N(CO)CO)cc1 [[(4-nitroso-phenyl)imino]dimethanol hydrochloride]
- reflectance of the measured sample [1]: about 20%

— patent US9540702B2, “Stabilization of enzymes with stable coenzymes” (Roche Diabetes Care, Inc., priority 2009, dated 2017)
